# Measurements published in patent EP4768487A1, “FUSED LACTAM RING COMPOUND AND USE THEREOF” (Chengdu Zenitar Biomedical Technology Co., Ltd., priority 2023, dated 2025).
# Key:
# [1] = biological target: T1, PARP1 (Homo sapiens, UniProt P09874); experiment: PARP1 enzyme assay (histone-coated plate, chemiluminescence); assay type: biochemical; details: PARP1 0.02 nM, DNA 0.8 nM, NAD+ 3.5 µM; read-out: PARP-1 IC50
# T1 construct: purchased BPS 80501
# Experimental: 1.1.1. Buffer preparation: PBST: 1× PBS, 0.05% Tween-20; blocking buffer: 1× PBS, 0.05% Tween-20, 5% BSA; reaction buffer: 50 mM Tris-HCl (pH 7.5), 0.005% Tween-20, 0.01% BSA.
# 1.1.2. Coating: A 50 ng/mL Histone coating solution was prepared with 1× PBS and then transferred to a 384-well reaction plate at 25 µL/well. The plate was coated at 4 °C overnight.
# 1.1.3. Washing: After the coating was completed, the coating solution was discarded, and the plate was washed with the PBST solution. The method was as follows: PBST was transferred to the 384-well reaction plate at 50 µL/well, and the plate was left to stand for 5 min. The washing solution was then discarded, and the plate was refilled. The washing step was repeated 3 times. Finally, the reaction plate was patted dry and left for the next step of blocking.
# 1.1.4. Blocking: The blocking buffer was transferred to the 384-well reaction plate at 50 µL/well, and the plate was left to stand for 1 h.
# Washing: After the blocking was completed, the blocking buffer was discarded, and the plate was washed 3 times with the PBST solution according to the method in step 2. Finally, the reaction plate was patted dry.
# 1.1.5. A 1000-fold solution of a compound was prepared and then transferred at 1 µL/well to a 96-well plate containing 199 µL of the reaction buffer. The mixture was well mixed, and then the well mixed compound solution was transferred to the 384-well reaction plate at 5 µL/well. 1.1.6. A 25/10-fold PARP1-DNA solution was prepared with the reaction buffer and then transferred to the 384-well reaction plate at 10 µL/well. For the negative control wells, 10 µL
# of the DNA solution was transferred. The final concentrations of PARP1 and DNA were 0.02 nM and 0.8 nM, respectively.
# 1.1.9. Washing: After the reaction was completed, the reaction solution was discarded, and the plate was washed 3 times with the PBST solution according to the method in step 2. Finally, the reaction plate was patted dry.
# 1.1.10. A primary antibody (anti-Poly/Mono-ADP Ribose Rabbit mAb) was diluted 2000-fold with the blocking buffer and then added at 20 µL/well.
# 1.1.11. Washing: The primary antibody was discarded, and the plate was washed 3 times with the PBST solution according to the method in step 2. Finally, the reaction plate was patted dry.
# 1.1.12. A secondary antibody (anti-rabbit IgG, HRP-linked Antibody) was diluted 2000-fold with the blocking buffer and then added at 20 µL/well.
# 1.1.13. Washing: The secondary antibody was discarded, and the plate was washed 3 times with the PBST solution according to the method in step 2. Finally, the reaction plate was patted dry.
# 1.1.14. Color development: Femto-ECL Substrate A and Femto-ECL Substrate B were mixed at a ratio of 1:1, and the mixture was transferred to the 384-well reaction plate at 25 µL/well. 1.1.15. Reading: The chemiluminescence values (RLU) were measured using Envision.
# [2] = test system: BRCA-mutated MDA-MB-436 cells; experiment: Anti-proliferative activity against cells (CCK8): MDA-MB-436; assay type: cell-based; details: Homo sapiens, 72 h + 96 h culture
# [3] = test system: BRCA wild-type DLD-1 cells; experiment: Anti-proliferative activity against cells (CCK8): DLD-1; assay type: cell-based; details: Homo sapiens, 72 h + 96 h culture
# Experimental: BRCA wild-type DLD-1 cells were cultured in an RPMI-1640 medium containing 10% fetal bovine serum, 100 U/mL penicillin, and 100 µg/mL streptomycin, and incubated in an incubator with 5% saturated CO2 at 37 °C. When the cells grew to 80% confluence, they were collected, centrifuged at 300 g for 10 min, and then plated onto a 96-well plate at 1000 cells/well. After 24 h, different final concentrations (0 µM, 1 µM, and 10 µM) of PARPi were added, and the cells were cultured for another 72 h. The cells were subjected to medium exchange treatment (re-supplemented with PARPi at the same final concentrations) and then cultured for another 96 h. The 96-well plate was taken out.
# T1 sequence (P09874 whole entry): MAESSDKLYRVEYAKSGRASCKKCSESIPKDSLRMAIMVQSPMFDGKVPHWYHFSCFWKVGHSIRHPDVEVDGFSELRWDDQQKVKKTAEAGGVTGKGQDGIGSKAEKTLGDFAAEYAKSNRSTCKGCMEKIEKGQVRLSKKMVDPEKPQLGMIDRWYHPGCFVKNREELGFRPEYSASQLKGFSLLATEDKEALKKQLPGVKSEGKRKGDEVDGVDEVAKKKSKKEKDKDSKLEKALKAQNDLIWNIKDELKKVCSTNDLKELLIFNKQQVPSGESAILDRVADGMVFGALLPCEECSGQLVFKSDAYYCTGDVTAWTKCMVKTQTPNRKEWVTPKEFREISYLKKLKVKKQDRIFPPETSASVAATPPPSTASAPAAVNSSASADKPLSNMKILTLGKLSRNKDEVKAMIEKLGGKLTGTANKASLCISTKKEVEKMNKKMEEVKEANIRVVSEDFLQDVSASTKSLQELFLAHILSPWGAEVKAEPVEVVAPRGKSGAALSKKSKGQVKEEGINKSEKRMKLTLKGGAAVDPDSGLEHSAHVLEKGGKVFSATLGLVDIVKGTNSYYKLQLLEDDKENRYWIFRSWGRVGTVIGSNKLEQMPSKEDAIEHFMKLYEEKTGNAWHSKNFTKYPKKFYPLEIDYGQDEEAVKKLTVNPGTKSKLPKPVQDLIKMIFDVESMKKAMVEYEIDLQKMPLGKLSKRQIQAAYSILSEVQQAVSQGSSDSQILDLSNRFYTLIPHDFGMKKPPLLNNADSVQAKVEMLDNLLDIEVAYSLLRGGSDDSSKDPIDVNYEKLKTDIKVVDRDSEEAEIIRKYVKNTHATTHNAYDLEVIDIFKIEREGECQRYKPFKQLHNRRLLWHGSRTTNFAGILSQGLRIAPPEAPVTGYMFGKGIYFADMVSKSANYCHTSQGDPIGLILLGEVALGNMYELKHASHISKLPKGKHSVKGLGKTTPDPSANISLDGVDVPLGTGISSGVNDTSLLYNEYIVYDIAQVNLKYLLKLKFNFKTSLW
IC50 [2] [nM],Structure (SMILES),IC50 [1] [nM],IC50 [3] [nM]
300,"CCc1cc2c([nH]c1=O)CC(CN1CCN(c3ccc(C(=O)NC)nc3)CC1)OC2 (centres unmarked) [Compound 1, 5-(4-((3-Ethyl-2-oxo-1,5,7,8-tetrahydro-2H-pyrano[4,3-b]pyridin-7-yl)methyl)piperazin-1-yl) -N-methylpicolinamide]",≤ 50,> 1000
1.5,"CCc1cc2c([nH]c1=O)CC(CN1CCN(c3ccc(C(=O)NC4CC4)nc3F)CC1)OC2 (centres unmarked) [Compound 3, N-Cyclopropyl-5-(4-((3-ethyl-2-oxo-1,5,7,8-tetrahydro-2H-pyrano[4,3-b]pyridin-7-yl)methyl)piperazin-1-yl)-6-fluoropicolinamide]",≤ 50,> 1000
4,"CCc1cc2c([nH]c1=O)CC(CN1CCN(c3ccc(C(=O)NC4CC4)nc3)CC1)OC2 (centres unmarked) [Compound 4, N-Cyclopropyl-5-(4-((3-ethyl-2-oxo-1,5,7,8-tetrahydro-2H-pyrano[4,3-b]pyridin-7-yl)methyl)piperazin-1-yl) picolinamide]",≤ 50,> 1000
3.5,"CCc1cc2c([nH]c1=O)CC(CN1CCN(c3ccc(C(=O)NC)nc3C)CC1)OC2 (centres unmarked) [Compound 38, 5-(4-((3-Ethyl-2-oxo-1,5,7,8-tetrahydro-2H-pyrano[4,3-b]pyridin-7-yl)methyl)piperazin-1-yl)-N,6-dimethylpicoli namide]",≤ 50,> 1000
,"CNC(=O)c1ccc(N2CCN(CC3Cc4[nH]c(=O)c(Br)cc4CO3)CC2)c(F)n1 (centres unmarked) [Example 40, 5-(4-((3-Bromo-2-oxo-1,5,7,8-tetrahydro-2H-pyrano[4,3-b]pyridin-7-yl)methyl)piperazin-1-yl)-6-fluoro-N-methylpicolinamide]",≤ 50,> 1000
16,"Cc1cc2c([nH]c1=O)CC(CN1CCN(c3ccc(C(=O)NC4CC4)nc3F)CC1)OC2 (centres unmarked) [Example 41, N-Cyclopropyl-6-fluoro-5-(4-((3-methyl-2-oxo-1,5,7,8-tetrahydro-2H-pyrano[4,3-b]pyridin-7-yl)methyl)piperazin-1-yl)picolinamide]",50 to 500,> 1000
,"CNC(=O)c1ccc(N2CCN(CC3Cc4[nH]c(=O)c(C5CC5)cc4CO3)CC2)c(F)n1 (centres unmarked) [Example 42, 5-(4-((3-Cyclopropyl-2-oxo-1,5,7,8-tetrahydro-2H-pyrano[4,3-b]pyridin-7-yl)methyl)piperazin-1-yl)-6-fluoro-N-methylpicolinamide]",50 to 500,> 1000
,"CCc1nc2c([nH]c1=O)C[C@@H](CN1CCN(c3ccc(C(=O)NC)nc3F)CC1)CC2 [Example 48, (S)-5-(4-((2-Ethyl-3-oxo-3,4,5,6,7,8-hexahydroquinoxalin-6-yl)methyl)piperazin-1-yl)-6-fluor o-N-methylpicolinamide]",≤ 50,> 1000
300,"CCc1cc2c([nH]c1=O)CC(CN1CCN(c3ccc(C(=O)NCC(F)F)nc3F)CC1)OC2 (centres unmarked) [Example 49, N-(2,2-Difluoroethyl)-5-(4-((3-ethyl-2-oxo-1,5,7,8-tetrahydro-2H-pyrano[4,3-b]pyridin-7-yl)methyl)piperazin-1-yl)-6-fluoropicolinamide]",≤ 50,> 1000
,"CNC(=O)c1ccc(C2=CCN(C[C@H]3CCc4nc(C5CC5)c(=O)[nH]c4C3)CC2)c(F)n1 [Example 56, (S)-1'-((2-Cyclopropyl-3-oxo-3,4,5,6,7,8-hexahydroquinoxaline-6-yl)methyl)-2-fluoro-N-met hyl-1',2',3',6'-tetrahydro-[3,4'-bipyridine]-6-carboxamide]",≤ 50,> 1000
,"CNC(=O)c1ccc(N2CCN(C[C@H]3CCc4nc(C5CC5)c(=O)[nH]c4C3)CC2)c(F)n1 [Example 57, (S)-5-(4-((2-Cyclopropyl-3-oxo-3,4,5,6,7,8-hexahydroquinoxaline-6-yl)methyl)piperazin-1-yl)-6-fluoro-N-methylpicolinamide]",≤ 50,> 1000
0.7,"CCc1cc2c([nH]c1=O)C[C@@H](CN1CCN(c3ccc(C(=O)NC)nc3F)CC1)OC2 [Example 65, (S)-5-(4-((3-Ethyl-2-oxo-1,5,7,8-tetrahydro-2H-pyrano[4,3-b]pyridin-7-yl)methyl)piperazin-1-yl)-6-fluoro-N-methylpicolinamide]",,> 1000
4.5,"CCc1cc2c([nH]c1=O)C[C@H](CN1CCN(c3ccc(C(=O)NC)nc3F)CC1)OC2 [Example 66, (R)-5-(4-((3-ethyl-2-oxo-1,5,7,8-tetrahydro-2H-pyrano[4,3-b]pyridin-7-yl)methyl)piperazin-1-yl)-6-fluoro-N-methylpicolinamide]",,> 1000
,"CNC(=O)c1ccc(N2CCN(C(C)[C@H]3CCc4nc(C)c(=O)[nH]c4C3)CC2)c(F)n1 (stereo partly drawn) [Example 71, (S)-6-Fluoro-N-methyl-5-(4-(1-(2-methyl-3-oxo-3,4,5,6,7,8-hexahydroquinoxalin-6-yl)ethyl)piperazin-1-yl)picolinamide]",≤ 50,> 1000
130,"COC1CC(NC(=O)c2ccc(N3CCN(CC4Cc5[nH]c(=O)c(C)cc5CO4)CC3)c(F)n2)C1 (centres unmarked) [Example 79, 6-Fluoro-N-(3-methoxycyclobutyl)-5-(4-((3-methyl-2-oxo-1,5,7,8-tetrahydro-2H-pyrano[4,3-b]pyridin-7-yl)methyl)piperazin-1-yl)picolinamide]",,> 1000
300,"CNC(=O)c1ccc(C2CCN(C[C@H]3CCc4nc(C)c(=O)[nH]c4C3)CC2)c(F)n1 [Example 80, (S)-6-Fluoro-N-methyl-5-(1-((2-methyl-3-oxo-3,4,5,6,7,8-hexahydroquinoxalin-6-yl)methyl)piperidin-4-yl)picolinamide]",,> 1000
,"CNC(=O)c1ccc(N2CCN(CC3COc4cc(Cl)c(=O)[nH]c4C3)CC2)c(F)n1 (centres unmarked) [Example 86, 5-(4-((7-Chloro-6-oxo-3,4,5,6-tetrahydro-2H-pyrano[3,2-b]pyridin-3-yl)methyl)piperazin-1-yl)-6-fluoro-N-methylpicolinamide]",50 to 500,> 1000
,"CNC(=O)c1ccc2c(n1)COC[C@H]1CN(CC3Cc4[nH]c(=O)c(C)cc4CO3)CCN21 (stereo partly drawn) [Example 92, (4aR)-N-Methyl-3-((3-methyl-2-oxo-1,5,7,8-tetrahydro-2H-pyrano[4,3-b]pyridin-7-yl)methyl) -1,2,3,4,4a,5-hexahydro-7H-pyrazino[2,1-c]pyrido[3,2-e][1,4]oxazolidine-9-carboxamide]",≤ 50,> 1000
,"CNC(=O)c1ccc(N2CCN(CC3Cc4[nH]c(=O)c(SC)cc4CO3)CC2)c(F)n1 (centres unmarked) [Example 96, 6-Fluoro-N-methyl-5-(4-((3-(methylthio)-2-oxo-1,5,7,8-tetrahydro-2H-pyrano[4,3-b]pyridin-7-yl)methyl)piperazin-1-yl)picolinamide]",≤ 50,> 1000

Structure (SMILES),IC50 [2] [nM],IC50 [1] [nM],IC50 [3] [nM]
"CCc1cc2c([nH]c1=O)CC(CN1CC=C(c3ccc(C(=O)NC)nc3)CC1)OC2 (centres unmarked) [Compound 5, 1'-((3-Ethyl-2-oxo-1,5,7,8-tetrahydro-2H-pyrano[4,3-b]pyridin-7-yl)methyl)-N-methyl-1',2',3',6'-tetrahydro-[3,4'-bipyridine]-6-carboxamide]",7.5,≤ 50,> 1000
"CNC(=O)c1ccc(C2=CCN(C[C@H]3CCc4nc(C)c(=O)[nH]c4C3)CC2)c(F)n1 [Example 46, (S)-2-Fluoro-N-methyl-1'-((2-methyl-3-oxo-3,4,5,6,7,8-hexahydroquinoxalin-6-yl)methyl)-1', 2',3',6'-tetrahydro-[3,4'-bipyridine]-6-carboxamide]",6.7,≤ 50,> 1000
